From patent publication US20230077362A1 (CORTEVA AGRISCIENCE LLC, priority 2019, published 2023)
Like-named read-outs stand apart in the source and are kept apart here.

How the values were obtained:
[1] = tested on: Beet Armyworm (Spodoptera exigua) ("BAW"), second instar larvae; test: Bioassay on beet armyworm (BAW), 128-well diet tray assay; format: in vivo; conditions: for pest or weed control at 50 µg/cm2: Spodoptera exigua
Outline: (§1)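 After sealing with a clear self-adhesive lid, the trays are incubated at 25° C. with 14 h light and 10 h dark for 5 to 7 days; mortality in each well is recorded as a percentage and averaged across the eight wells.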

[2] = tested on: Cabbage Looper (Trichoplusia ni) ("CL"), second instar larvae; test: Bioassay on cabbage looper (CL), 128-well diet tray assay; format: in vivo
Outline: as §1

[3] = read-out: BAW (Biological Results, rating)
[4] = Trichoplusia ni, read-out: CL (Biological Results, rating)
[5] = Trichoplusia ni, read-out: CL rating

SMILES	pest or weed control at 50 µg/cm2 [1, 3] [%]	pest or weed control at 50 µg/cm2 [2, 4] [%]	pest or weed control at 50 µg/cm2 ([1]; read-out: BAW rating) [%]	pest or weed control at 50 µg/cm2 [2, 5] [%]	also measured
Cc1ccc(C(C)C)c(N2C(=O)CS/C2=N\C(=O)Nc2ccc(-c3ncn(-c4ccc(C(F)(F)F)cn4)n3)cc2)c1 [Compound J337, (Z)-1-(3-(2-Isopropyl-5-methylphenyl)-4-oxothiazolidin-2-ylidene)-3-(4-(1-(5-(trifluoromethyl)pyridin-2-yl)-1H-1,2,4-triazol-3-yl)phenyl)urea]	50 to 100	50 to 100	–	–	–
Cc1ccc(COCC(F)(F)F)c(N2C(=O)CS/C2=N\C(=O)Nc2ccc(-c3cn(-c4ccc(C(F)(F)F)cn4)cn3)cc2F)c1 [Compound J487, (Z)-1-(2-Fluoro-4-(1-(5-(trifluoromethyl)pyridin-2-yl)-1H-imidazol-4-yl)phenyl)-3-(3-(5-methyl-2-((2,2,2-trifluoroethoxy)methyl)phenyl)-4-oxothiazolidin-2-ylidene)urea]	–	–	50 to 100	50 to 100	–
Cc1ccc(COCC(Cl)(Cl)Cl)c(N2C(=O)CS/C2=N\C(=O)Nc2ccc(-c3ncn(-c4ccc(C(F)(F)F)cc4)n3)cc2F)c1 [Compound J550]	–	–	–	–	BAW rating ([1]; Table ABC, species BAW, C = not tested, D = no activity noticed): A (50-100); CL rating ([2]; Table ABC, species CL, C = not tested, D = no activity noticed): A (50-100)
Cc1ccc(COCc2ccc(F)cc2C(F)(F)F)c(N2C(=O)CS/C2=N\C(=O)Nc2ccc(-c3ncn(-c4ccc(OC(F)(F)F)cc4)n3)cc2F)c1 [Compound J621, (Z)-1-(3-(2-(((4-Fluoro-2-(trifluoromethyl)benzyl)oxy)methyl)-5-methylphenyl)-4-oxothiazolidin-2-ylidene)-3-(2-fluoro-4-(1-(4-(trifluoromethoxy)phenyl)-1H-1,2,4-triazol-3-yl)phenyl)urea]	–	–	50 to 100	50 to 100	–
COC(C)c1ccc(C)cc1N1C(=O)CS/C1=N\C(=O)Nc1ccc(-c2nnc(-c3ccc(OC(F)(F)F)cc3)o2)cc1F (centres unmarked) [Compound J429, (Z)-1-(2-Fluoro-4-(5-(4-(trifluoromethoxy)phenyl)-1,3,4-oxadiazol-2-yl)phenyl)-3-(3-(2-(1-methoxyethyl)-5-methylphenyl)-4-oxothiazolidin-2-ylidene)urea]	–	–	50 to 100	50 to 100	–
Cc1ccc(C(F)(F)F)c(N2C(=O)CS/C2=N\C(=O)NC(C)Cc2ccc(-c3ncn(-c4ccc(OC(F)(F)F)cc4)n3)cc2)c1 (centres unmarked) [Compound H4]	50 to 100	50 to 100	–	–	–
CCc1cc(-c2ncn(-c3ccc(OC(F)(F)F)cc3)n2)ccc1NC(=O)/N=C1\SCC(=O)N1c1cc(N(C)C)ccc1OCCC(F)(F)F [Compound J110, (Z)-1-(3-(5-(Dimethylamino)-2-(3,3,3-trifluoropropoxy)phenyl)-4-oxothiazolidin-2-ylidene)-3-(2-ethyl-4-(1-(4-(trifluoromethoxy)phenyl)-1H-1,2,4-triazol-3-yl)phenyl)urea]	50 to 100	50 to 100	–	–	–
COc1ccc(C(C)C)c(N2C(=O)CS/C2=N\C(=O)Nc2ccc(-c3ncn(-c4ccc(C(F)(F)F)cc4)n3)cc2F)c1 [Compound J11, (Z)-1-(2-Fluoro-4-(1-(4-(trifluoromethyl)phenyl)-1H-1,2,4-triazol-3-yl)phenyl)-3-(3-(2-isopropyl-5-methoxyphenyl)-4-oxothiazolidin-2-ylidene)urea]	50 to 100	50 to 100	–	–	–
COC(C)c1ccc(C)cc1N1C(=O)CS/C1=N\C(=O)Nc1ccc(-c2cn(-c3ccc(C(F)(F)F)cn3)cn2)cc1F (centres unmarked) [Compound J461, (Z)-1-(2-Fluoro-4-(1-(5-(trifluoromethyl)pyridin-2-yl)-1H-imidazol-4-yl)phenyl)-3-(3-(2-(1-methoxyethyl)-5-methylphenyl)-4-oxothiazolidin-2-ylidene)urea]	–	–	50 to 100	50 to 100	–
Cc1cccc(N2C(=O)CS/C2=N\C(=O)Nc2ccc(-n3cnc(-c4ccc(C(F)(F)F)cc4)n3)cc2F)c1COCC(F)(F)F [Compound J704, (Z)-1-(2-Fluoro-4-(3-(4-(trifluoromethyl)phenyl)-1H-1,2,4-triazol-1-yl)phenyl)-3-(3-(3-methyl-2-((2,2,2-trifluoroethoxy)methyl)phenyl)-4-oxothiazolidin-2-ylidene)urea]	–	–	50 to 100	50 to 100	–
COC(c1ccc(C)cc1N1C(=O)CS/C1=N\C(=O)Nc1ccc(-c2cn(-c3ccc(S(F)(F)(F)(F)F)cc3)cn2)cc1C)C(F)(F)F (centres unmarked) [Compound J617, (Z)-1-(3-(5-Methyl-2-(2,2,2-trifluoro-1-methoxyethyl)phenyl)-4-oxothiazolidin-2-ylidene)-3-(2-methyl-4-(1-(4-(pentafluoro-λ^6-sulfaneyl)phenyl)-1H-imidazol-4-yl)phenyl)urea]	–	–	50 to 100	50 to 100	–
Cc1ccc(C(C)C)c(N2C(=O)CS/C2=N\C(=O)Nc2ccc(-n3cnc(-c4ccc(OC(F)(F)F)cc4)n3)cc2C)c1 [Compound J466, (Z)-1-(3-(2-Isopropyl-5-methylphenyl)-4-oxothiazolidin-2-ylidene)-3-(2-methyl-4-(3-(4-(trifluoromethoxy)phenyl)-1H-1,2,4-triazol-1-yl)phenyl)urea]	–	–	50 to 100	50 to 100	–
COC(C)c1ccc(C)cc1N1C(=O)CS/C1=N\C(=O)Nc1ccc(-c2ncn(-c3ccc(OC(F)(F)F)cc3)n2)cc1C(C)C (centres unmarked) [Compound J94, (Z)-1-(2-Isopropyl-4-(1-(4-(trifluoromethoxy)phenyl)-1H-1,2,4-triazol-3-yl)phenyl)-3-(3-(2-(1-methoxyethyl)-5-methylphenyl)-4-oxothiazolidin-2-ylidene)urea]	50 to 100	50 to 100	–	–	–
COC(c1ccc(C)cc1N1C(=O)CS/C1=N\C(=O)Nc1ccc(-c2nc(-c3ccc(OC(F)(F)F)cc3)no2)cc1F)C(F)(F)F (centres unmarked) [Compound J428, (Z)-1-(2-Fluoro-4-(3-(4-(trifluoromethoxy)phenyl)-1,2,4-oxadiazol-5-yl)phenyl)-3-(3-(5-methyl-2-(2,2,2-trifluoro-1-methoxyethyl)phenyl)-4-oxothiazolidin-2-ylidene)urea]	–	–	50 to 100	50 to 100	–
COc1c(C)cccc1N1C(=O)CS/C1=N\C(=O)Nc1ccc(-c2ncn(-c3ccc(OC(F)(F)F)cc3)n2)cc1F [Compound J798, (Z)-1-(2-Fluoro-4-(1-(4-(trifluoromethoxy)phenyl)-1H-1,2,4-triazol-3-yl)phenyl)-3-(3-(2-methoxy-3-methylphenyl)-4-oxothiazolidin-2-ylidene)urea]	–	–	–	–	BAW rating (% control or mortality class) ([1]; Table ABC, species BAW, 128-well diet tray assay, second instar larvae): A (50-100); mortality at 50 µg/cm2 ([2]; Trichoplusia ni, Table ABC, species CL, 128-well diet tray assay, second instar larvae, read-out: CL rating (% control or mortality class)): 50 to 100%
Cc1ccc(C(F)(F)F)c(N2C(=O)CS/C2=N\C(=O)Nc2ccc(-c3ncn(-c4ccc(OC(F)(F)F)cc4)n3)cc2F)c1 [Compound J30, (Z)-1-(2-Fluoro-4-(1-(4-(trifluoromethoxy)phenyl)-1H-1,2,4-triazol-3-yl)phenyl)-3-(3-(5-methyl-2-(trifluoromethyl)phenyl)-4-oxothiazolidin-2-ylidene)urea]	50 to 100	50 to 100	–	–	–
Cc1ccc(OCCC(F)(F)F)c(N2C(=O)CS/C2=N\C(=O)Nc2ccc(-c3cn(-c4ccc(OC(F)(F)F)cc4)cn3)cc2F)c1 [Compound J476, (Z)-1-(2-Fluoro-4-(1-(4-(trifluoromethoxy)phenyl)-1H-imidazol-4-yl)phenyl)-3-(3-(5-methyl-2-(3,3,3-trifluoropropoxy)phenyl)-4-oxothiazolidin-2-ylidene)urea]	–	–	50 to 100	50 to 100	–
COC(C)c1ccc(C)cc1N1C(=O)CS/C1=N\C(=O)Nc1ccc(-c2ncn(-c3ccc(OC(F)(F)F)cc3)n2)cc1C(F)(F)F (centres unmarked) [Compound J117, (Z)-1-(3-(2-(1-Methoxyethyl)-5-methylphenyl)-4-oxothiazolidin-2-ylidene)-3-(4-(1-(4-(trifluoromethoxy)phenyl)-1H-1,2,4-triazol-3-yl)-2-(trifluoromethyl)phenyl)urea]	50 to 100	50 to 100	–	–	–
CCOC(C)c1ccc(C)cc1N1C(=O)CS/C1=N\C(=O)Nc1ccc(-c2ncn(-c3ccc(OC(F)(F)F)cc3)n2)cc1OCOC (centres unmarked) [Compound J174, (Z)-1-(3-(2-(1-Ethoxyethyl)-5-methylphenyl)-4-oxothiazolidin-2-ylidene)-3-(2-(methoxymethoxy)-4-(1-(4-(trifluoromethoxy)phenyl)-1H-1,2,4-triazol-3-yl)phenyl)urea]	50 to 100	50 to 100	–	–	–
Cc1ccc(CC(C)C)c(N2C(=O)CS/C2=N\C(=O)Nc2ccc(-c3ncn(-c4ccc(OC(F)(F)F)cc4)n3)cc2F)c1 [Compound J47, (Z)-1-(2-Fluoro-4-(1-(4-(trifluoromethoxy)phenyl)-1H-1,2,4-triazol-3-yl)phenyl)-3-(3-(2-isobutyl-5-methylphenyl)-4-oxothiazolidin-2-ylidene)urea]	50 to 100	50 to 100	–	–	–
CCCc1ccc(C)cc1N1C(=O)CS/C1=N\C(=O)Nc1ccc(-c2ncn(-c3ccc(OC(F)(F)F)cc3)n2)cc1C#N [Compound J248, (Z)-1-(2-Cyano-4-(1-(4-(trifluoromethoxy)phenyl)-1H-1,2,4-triazol-3-yl)phenyl)-3-(3-(5-methyl-2-propylphenyl)-4-oxothiazolidin-2-ylidene)urea]	50 to 100	50 to 100	–	–	–
Cc1ccc(COCC(F)(F)F)c(N2C(=O)CS/C2=N\C(=O)Nc2ccc(-c3cn(-c4ccc(C(F)(F)F)cc4)cn3)cc2C)c1 [Compound J526, (Z)-1-(3-(5-Methyl-2-((2,2,2-trifluoroethoxy)methyl)phenyl)-4-oxothiazolidin-2-ylidene)-3-(2-methyl-4-(1-(4-(trifluoromethyl)phenyl)-1H-imidazol-4-yl)phenyl)urea]	–	–	50 to 100	50 to 100	–
